Structures are written as SMILES.

Data set [1] relates to rice leafroller (Cnaphalocrosis medinalis). The note with it: 500 ppm; rice lamina immersed about 30 seconds; third-instar larvae; four days after the inoculation; 25° C., humidity 70%. On the procedure:
Insecticidal effect on rice leafroller (Cnaphalocrosis medinalis)
After air-dryness, the lamina was placed in a plastic Petri dish with a diameter of 9 cm whose bottom had been covered with a wetted filter paper. The lamina was inoculated with third-instar larvae of rice leafroller, after which the dish was allowed to stand in a room thermostatted at 25° C. and having a humidity of 70%. Four days after the inoculation, the dead and alive were counted and the insecticidal effect was judged according to the criterion shown in Test Example 1. The test was carried out with triplicate groups of 10 insects.

The subject of data set [2] is diamond back moth (Plutella xylostella). Type of data set: in vivo. The note with it: 1,000 ppm; Chinese cabbage seedling with eggs immersed about 30 seconds; counted six days after the immersion; 25° C. An excerpt: Insecticidal effect on diamond back moth (Plutella xylostella)
Adult diamond back moths were released and allowed to oviposit on a Chinese cabbage seedling. […] Six days after the immersion, the hatched insects were counted. […] [formula] Criterion • A - - - Mortality 100% • B - - - Mortality 99-90% • C - - - Mortality 89-80% • D - - - Mortality 79-50%

Data set [3] relates to Common cutworm (Spodoptera litura). Type of data set: in vivo. The note with it: 500 ppm; cabbage leaf immersed about 30 seconds; second-instar larvae; eight days after the inoculation; 25° C. An excerpt:
Insecticidal Effect on Common cutworm (Spodoptera litura)

With `CCN(CC)C(=O)c1c(I)cccc1C(=O)Nc1ccc(C(F)(F)C(F)(F)C(F)(F)F)nc1` [Q27-131], the “insecticidal effect (activity ranking by mortality)” value (shortened to “insecticidal effect”) in data set [1], in data set [2] and in data set [3] was “B or higher” in each case.
`CC(C)NC(=O)c1ccccc1C(=O)Nc1ncc(C(F)(F)F)cc1Cl` [Q26-1]: the “insecticidal effect” value in data set [1], in data set [2] and in data set [3] was “B or higher” in each case.
`Cc1cc(Cl)ncc1NC(=O)c1cccc(Cl)c1C(=O)NC(C)C` [Q27-81]: the “insecticidal effect” value in data set [1], in data set [2] and in data set [3] was “B or higher” each time.
`CC(C)NC(=O)c1c(C(=O)Nc2cccnc2)cccc1[N+](=O)[O-]` [Q27-164]: the “insecticidal effect” value in data set [1], in data set [2] and in data set [3] was “B or higher” each time.
Take `CSCC(C)NC(=O)c1c(I)cccc1C(=O)Nc1ccc(C(F)(C(F)(F)F)C(F)(F)F)nc1C` (stereo not shown) [Q27-145]: the “insecticidal effect” value in data set [1], in data set [2] and in data set [3] was “B or higher” each time.
On to `CC(C)NC(=O)c1cccc(Cl)c1C(=O)Nc1ccc(SC(C)C)nc1` [Q27-126], for which the “insecticidal effect” value in data set [1], in data set [2] and in data set [3] was “B or higher” throughout.
For the compound `CCN(CC)C(=O)c1c(I)cccc1C(=O)Nc1ccc(Oc2ccc(Br)cc2)nc1` [Q27-132], the “insecticidal effect” value in data set [1], in data set [2] and in data set [3] was “B or higher” each time.
Consider `CCN(CC)C(=O)c1c(I)cccc1C(=O)Nc1ccc(Br)cn1` [Q26-33], for which the “insecticidal effect” value in data set [1], in data set [2] and in data set [3] was “B or higher” in each case.
In the case of `CC(C)NC(=O)c1c(I)cccc1C(=O)Nc1ccc(Cl)nc1` [Q27-133], the “insecticidal effect” value in data set [1], in data set [2] and in data set [3] was “B or higher” in each case.
As to `CC(C)NC(=O)c1c(I)cccc1C(=O)Nc1ccc(C(F)(F)C(F)(F)C(F)(F)F)nc1` [Q27-135], the “insecticidal effect” value in data set [1], in data set [2] and in data set [3] was “B or higher” throughout.
Consider `Cc1cc(C(F)(C(F)(F)F)C(F)(F)F)ncc1NC(=O)c1cccc(I)c1C(=O)NC(C)(C)C` [Q27-142], for which the “insecticidal effect” value in data set [1], in data set [2] and in data set [3] was “B or higher” each time.
As to `CCN(CC)C(=O)c1c(I)cccc1C(=O)Nc1ncc(C(F)(F)C(F)(F)C(F)(F)F)cc1C` [Q26-30], the “insecticidal effect” value in data set [1], in data set [2] and in data set [3] was “B or higher” throughout.
Take `CSCC(C)NC(=O)c1c(I)cccc1C(=O)Nc1cnc(C(F)(C(F)(F)F)C(F)(F)F)cc1C` (stereo not shown) [Q27-144, N^1-(4-methyl-2-heptafluoroisopropyl-pyridin-5-yl)-N^2-(1-methyl-2-methylthioethyl),-3-iodophthalamide]: the “insecticidal effect” value in data set [1], in data set [2] and in data set [3] was “B or higher” throughout.
As for `CCN(CC)C(=O)c1c(I)cccc1C(=O)Nc1ncc(C(F)(C(F)(F)F)C(F)(F)F)cc1C` [Q26-31], the “insecticidal effect” value in data set [1], in data set [2] and in data set [3] was “B or higher” each time.
Consider `CC(C)NC(=O)c1cccc(Cl)c1C(=O)Nc1ccc(Oc2ccc(Br)cc2)nc1` [Q27-124], for which the “insecticidal effect” value in data set [1], in data set [2] and in data set [3] was “B or higher” in each case.
Regarding `CC(C)NC(=O)c1c(I)cccc1C(=O)Nc1ccc(C(F)(C(F)(F)F)C(F)(F)F)nc1[S+](C)[O-]` (stereo not shown) [Q27-247], the “insecticidal effect” value in data set [2] and in data set [3] was “B or higher” in each case.
Turning to `Cc1nc(OC(C(F)(F)F)C(F)(F)F)ccc1NC(=O)c1cccc(Cl)c1C(=O)NC(C)C` [Q27-297], the “insecticidal effect” value in data set [2] and in data set [3] was “B or higher” in each case.
For the compound `COc1nc(OC(C(F)(F)F)C(F)(F)F)ccc1NC(=O)c1cccc(I)c1C(=O)NC(C)(C)CSC` [Q27-268], the “insecticidal effect” value in data set [2] and in data set [3] was “B or higher” each time.
Turning to `Cc1nc(OC(C(F)(F)F)C(F)(F)F)ccc1NC(=O)c1cccc(C(F)(F)F)c1C(=O)NC(C)(C)C[S+](C)[O-]` (stereo not shown) [Q27-360], the “insecticidal effect” value in data set [2] and in data set [3] was “B or higher” each time.
Consider `CSCC(C)(C)NC(=O)c1c(I)cccc1C(=O)Nc1c(Cl)cc(C(F)(C(F)(F)F)C(F)(F)F)nc1Cl` [Q27-240], for which the “insecticidal effect” value in data set [2] and in data set [3] was “B or higher” throughout.
Regarding `CSCC(C)(C)NC(=O)c1c(I)cccc1C(=O)Nc1ccc(NC(=O)C(F)(F)C(F)(F)F)nc1C` [Q27-439], the “insecticidal effect” value in data set [2] and in data set [3] was “B or higher” each time.
Regarding `Cc1nc(OC(C(F)(F)F)C(F)(F)F)ccc1NC(=O)c1cccc(C(F)(F)F)c1C(=O)NC(C)C` [Q27-354], the “insecticidal effect” value in data set [2] and in data set [3] was “B or higher” throughout.
Take `C[S+]([O-])CC(C)(C)NC(=O)c1c(I)cccc1C(=O)Nc1ccc(C(F)(C(F)(F)F)C(F)(F)F)nc1Cl` (stereo not shown) [Q27-235]: the “insecticidal effect” value in data set [2] and in data set [3] was “B or higher” in each case.
As for `Cc1nc(OC(C(F)(F)F)C(F)(F)F)ccc1NC(=O)c1ccc(Cl)c(Cl)c1C(=O)NC(C)C` [Q27-332], the “insecticidal effect” value in data set [2] and in data set [3] was “B or higher” in each case.
Consider `CSCC(C)NC(=O)c1c(C(=O)Nc2ccc(OC(C(F)(F)F)C(F)(F)F)nc2C)ccc(Cl)c1Cl` (stereo not shown) [Q27-334], for which the “insecticidal effect” value in data set [2] and in data set [3] was “B or higher” each time.
Regarding `Cc1nc(C(F)(C(F)(F)F)C(F)(F)F)ccc1NC(=O)c1cccc(I)c1C(=O)NC(C)(C)C[S+](C)[O-]` (stereo not shown) [Q27-153], the “insecticidal effect” value in data set [2] and in data set [3] was “B or higher” each time.

Values taken from patent US6875768B1, “Phthalamide derivatives, intermediates in the production thereof, and agricultural/horticultural insecticides and method for using the same” (Nihon Nohyako Co., Ltd., priority 1999, dated 2005).
